Source: PubChem BioAssay AID179 (DTP/NCI, 2004)
Active and inactive are the calls of the source.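 The calls were made as follows: active = compounds giving half or more protection of infected cells from virus-caused growth loss, again on retest; inactive = the rest.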

Tested on: CEM cells HIV-1 protection, formazan growth assay
Experiment: NCI AIDS Antiviral Assay
Settings: for IC50: measured here: growth of uninfected CEM cells
Summary of the method: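 Screen of anti-HIV-1 activity in human CEM cells using a formazan-based growth measurement at five drug concentrations. Hits with 50% or greater protection were repeated, and confirmation required reproducible complete protection.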

Row | Compound | EC50 [µM] | IC50 [µM] | outcome
1 | CCC(=O)/C=C/c1ccccc1 | > 200 | 93.3 | –
2 | C[N+](C)(C)CC(=O)N/N=C(/Cc1nc2ccc([N+](=O)[O-])cc2[nH]c1=O)C(=O)Nc1cc(C(F)(F)F)ccc1Cl | > 295 | 120 | –
3 | CN(C)c1ccc(C(=C2C=CC(=[N+](C)C)C=C2)c2ccc(N(C)C)cc2)cc1 | – | – | inactive
4 | C[N+]1(C)C/C(=C\c2ccncc2)C(=O)/C(=C/c2ccncc2)C1 | – | – | inactive
5 | C=CCOCC(O)CNCC(O)COCC=C (stereo not drawn) | > 200 | > 200 | –
6 | COc1c2occc2c(N=Cc2ccc([N+](=O)[O-])cc2)c2ccc(=O)oc12 | > 34.7 | > 34.7 | –
7 | Cc1ccc(S(=O)(=O)N/N=C(\c2nc3ccc([N+](=O)[O-])cc3[nH]c2=O)C(O)c2ccc([N+](=O)[O-])cc2)cc1 (stereo not drawn) | > 126 | 112 | –
8 | Cc1ccc(/C=C(\C#N)C(=O)c2ccccc2)cc1 | > 145 | 102 | –
9 | CCOC(=O)NC(C(F)(F)F)(C(F)(F)F)P(=O)(OCC(C)C)OCC(C)C | > 200 | 5.37 | –
10 | O=C1OC(c2cccs2)Sc2ccccc21 (stereo not drawn) | > 200 | 195 | –
11 | COc1ccc(NS(=O)(=O)c2ccc3ncn(NS(=O)(=O)c4ccc(I)cc4)c(=O)c3c2)cc1 | – | – | inactive
12 | S=P1(Oc2ccccc2)NNP2(=NP(N3CC3)(N3CC3)=NP(N3CC3)(N3CC3)=N2)NN1 (stereo not drawn) | > 50.1 | 5.13 | –
13 | CC(=O)C1CC(C)=CCC12C(=O)Nc1ccccc12 (stereo not drawn) | > 195 | > 195 | –
14 | Cc1nc2c(=O)n(C)c(=O)nc-2n(-c2ccc(Cl)cc2)c1C | – | – | inactive
15 | CCC[CH2][Ge]([CH2]CCC)([CH2]CCC)[O]C(=O)C(OC)c1ccccc1 (stereo not drawn) | > 151 | 7.41 | –
16 | Cc1cc2c(cc1C)N1C(Cl)=C3CCCCC3=C(C#N)C1N2 (stereo not drawn) | > 20 | 0.562 | –
17 | CCCCCCCCP(=O)(O)OP(=O)(O)OCC1OC(n2ccc(N)nc2=O)C(O)C1O (stereo not drawn) | > 200 | > 200 | –
18 | CC(C)CCC[C@@H](C)C1CCC2C3CCC4C[C@@H](CCC=C(c5cc(F)c(O)c(C(=O)O)c5)c5cc(F)c(O)c(C(=O)O)c5)CC[C@]4(C)C3CC[C@@]21C (stereo partly drawn) | 21.9 | > 200 | –
19 | Cc1cc(C)c(-c2noc(-c3ccc(Cl)cc3)c2C2=NCCN2)c(C)c1 | – | – | inactive
20 | CN(C)CC1CCC/C(=C\c2ccc(N(C)C)cc2)C1=O (stereo not drawn) | > 200 | 2.24 | –
21 | COC(=O)c1c(CC(Cc2ccc3c(c2)CCCC3)C(=O)OC)ccc2c1CCCC2 (stereo not drawn) | > 200 | 95.5 | –

Row | Compound | EC50 [µM] | IC50 [µM] | outcome
22 | O=C(O/N=C1/CCC/C1=C\c1ccccc1)c1ccc(Cl)cc1 | – | – | inactive
23 | CC(=O)OCC1OC(OCCCOP(=O)(OCCC#N)OCC2OC(n3cnc4c(N)ncnc43)C(OC(=O)c3ccccc3)C2OC(=O)c2ccccc2)C(OC(C)=O)C(OC(C)=O)C1OC(C)=O (stereo not drawn) | > 100 | > 100 | –
24 | CCCCCC=C1c2ccccc2C=Cc2ccccc21 | > 200 | 72.4 | –
25 | O=C1c2ccccc2C(=O)N1CCCC[P+](c1ccccc1)(c1ccccc1)c1ccccc1 | > 200 | 15.5 | –
26 | S=C1NC2=C(COc3ccccc32)C(c2ccc(Cl)cc2)N1 (stereo not drawn) | > 200 | 23.4 | –
27 | CCCc1cc(=O)c2c(C)c3[nH]c4ccc(Cl)cc4c3c(C)c2[nH]1 | > 200 | 11 | –
28 | COc1cc(OC)c(/C=C2\N=C(C)N(Nc3nnc(NN4C(=O)/C(=C/c5c(OC)cc(OC)cc5OC)N=C4C)c4ccccc34)C2=O)c(OC)c1 | – | – | inactive
29 | O=C(CSC(=S)N1CCCCC1)Nc1nc2c(s1)CCCC2 | > 38 | > 38 | –
30 | O=c1cccc2n1CC1CNCC2C1 (stereo not drawn) | > 200 | > 200 | –
31 | CCOC(=O)c1nc(-c2ccccc2)c(-c2ccccc2)c(-c2ccccc2)c1C | > 5.13 | > 5.13 | –
32 | CC(C)C1NC(=O)C(Cc2ccccc2)NC(=O)C2NC(=O)C(Cc3ccccc3)NC(=O)C3CCCN3C(=O)CNC(=O)C(Cc3ccccc3)NC(=O)C3CNCCCCC(C(=O)O)NC(=O)C4NC(=O)C(CC(N)=O)NC(=O)CNC(=O)C(C(O)C(=O)O)NC(=O)C(CSCC(NC(=O)C(CCC(N)=O)NC(=O)C(CCCNC(=N)N)NC(=O)C(N)CSC4C)C(=O)NC(CSC2C)C(=O)N3)NC1=O (stereo not drawn) | – | – | active
33 | CC(C)N(C(=O)C12C3C4C1C1C2C3C41C(=O)C(C)(C)C)C(C)C (stereo not drawn) | > 158 | 138 | –
34 | CN(C)[C@@H]1C(=O)C(C(N)=O)=C(O)[C@@]2(O)C(=O)C3=C(O)c4c(O)cccc4C[C@H]3C[C@@H]12 | > 200 | 3.55 | –
35 | CN(Cc1cnc2nc(N)nc(N)c2n1)c1ccc(C(=O)NC(CCC(=O)NCC(P(=O)(O)O)P(=O)(O)O)C(=O)O)cc1 (stereo not drawn) | > 200 | 1.23 | –
36 | CCCC1C(CC)C(NC)C(C#N)(C#N)C1(C#N)C#N (stereo not drawn) | > 200 | 10.2 | –
37 | CC(=O)[C@@H](C)C(=O)N1C(=O)OC[C@@]12[C@@H]1CC[C@@H](C1)C2(C)C | > 200 | > 200 | –
38 | NC1=CN(CCCO)C2=N/C(=C\c3ccccc3)C(=O)N12 | > 200 | > 200 | –
39 | CN(C)c1ccc(/C=C2\C=Cc3ccccc32)cc1 | – | – | inactive
40 | CCN(CC)c1ccc2cc(-c3nc4ccccc4c(=O)[nH]3)c(=N)oc2c1 | > 100 | > 100 | –
41 | O=C1NC(N2CCCCC2)=N/C1=C\c1cccs1 | > 200 | 151 | –
42 | CCN(CC)c1ccc2c(c1)N=C1N=CC=CN1C2(c1ccc(N(C)C)cc1)c1ccc(N(C)C)cc1 | – | – | inactive

Row | Compound | EC50 [µM] | IC50 [µM] | outcome
43 | CO/C=C/CCCN(C1CCCCC1)C(C#N)c1ccccc1 (stereo not drawn) | > 16.6 | > 16.6 | –
44 | CCCCCCC(=O)COP(=O)(OCC(=O)CCCCCC)OCC1C=CC(n2cc(C)c(=O)[nH]c2=O)O1 (stereo not drawn) | 0.562 | 174 | –
45 | CC12CCC(C(=Nc3cc(C(F)(F)F)cc(C(F)(F)F)c3)C1=O)C2(C)C (stereo not drawn) | > 200 | 37.2 | –
46 | C=CCn1c(C23CC4CC(CC(C4)C2)C3)n[nH]c1=S | > 1000 | 30.9 | –
47 | CCN(CC)CCOc1ccc(/C(C#N)=C/c2ccc(SC(C)C)cc2)cc1 | > 100 | 1.41 | –
48 | COC1OC2COC(c3ccccc3)OC2C(S)C1S (stereo not drawn) | > 200 | 102 | –
49 | COc1ccc(NC(=S)N/N=C(/C)c2ccccn2)cc1 | > 0.2 | 0.115 | –
50 | CCOC(=O)C(=[N+]=[N-])C(=O)CN1C(=O)C2CC(C)=C(C)CC2C1O (stereo not drawn) | > 389 | > 389 | –
51 | Nc1ccccc1N1C(=O)C(Cl)=C(Cl)C1=O | – | – | inactive
52 | COc1ccc(OC)c(/C=C/c2ccccc2)c1 | 0.0631 | 110 | –
53 | O=C(CCl)Nc1ccc(C(=O)N/N=C/c2ccc(Cl)cc2)cc1 | > 200 | 2.75 | –
54 | COc1ccccc1N1C(=O)CSC1c1c[nH]c2ccccc12 (stereo not drawn) | > 288 | 186 | –
55 | CCCCCCCCCCCCCCCCCC[N+](C)(C)Cc1ccc(C[N+](C)(C)CCCCCCCCCCCCCCCCCC)cc1 | – | – | inactive
56 | CC(=O)/C=C/c1ccc(C)cc1 | > 63.1 | > 63.1 | –
57 | Clc1ccc(CCn2ccc3ccccc32)c(Cl)c1 | > 200 | > 200 | –
58 | O=c1c(Cl)cc2nc3ccccc3sc-2c1Cl | > 9.55 | 8.91 | –
59 | N#Cc1c(=O)c2ccccc2n2ccccc12 | > 100 | > 100 | –
60 | O=C(N/C(=C\c1ccc(F)cc1)c1nc2ccccc2[nH]1)c1ccccc1 | > 191 | > 191 | –
61 | Cc1[nH]c(=O)c2oc3cc4ccccc4cc3c2c1C(=O)O | > 200 | > 200 | –
62 | COC(=O)C1=C(O)C(C(=O)OC)[C@@]2(O)[C@@H](C(=O)OC)CC[C@@H]1[C@@H]2C(=O)OC (stereo partly drawn) | > 200 | 38.9 | –
63 | CCCCCCCCCCCCCCCCC(=O)NCC(=O)NCC(=O)NC(Cc1ccccc1)C(=O)Oc1ccc([N+](=O)[O-])cc1 (stereo not drawn) | > 200 | 18.2 | –

Row | Compound | EC50 [µM] | IC50 [µM] | outcome
64 | CC(=O)NC1C(OC(C)C(=O)NC(C)C(=O)NC(CCC(=O)NCCCNc2ccc([N+](=O)[O-])c3[nH]c4ccccc4c(=O)c23)C(N)=O)C(O)C(CO)OC1(C)OCc1ccccc1 (stereo not drawn) | > 151 | 15.8 | –
65 | Cc1nc2c(O)c3c(c(O)c2nc1C)C1C=CC3CC1 | > 200 | 1.95 | –
66 | Cc1nn2c(=O)c([N+](=O)[O-])c(/C=C/c3ccco3)nc2s1 | > 200 | 45.7 | –
67 | COc1ccc(Cl)cc1C(=O)c1cc(Cl)cc(S(=O)(=O)OC)c1OC | > 24.5 | > 24.5 | –
68 | NCC=C1C2CC3CC(C2)CC1C3 | – | – | inactive
69 | O/N=C/[C@H]1COC2(CCCCC2)O1 | > 200 | > 200 | –
70 | CCCCNC(=O)Nc1c(C(N)=O)c2n(c1C(=O)OCC)CCCCC2 | > 50.1 | > 50.1 | –
71 | CC(C)C1=CC23CCC4C(C)(C(=O)O)CCCC4(C)C2CC1C1C(=O)N(c2ccc(N4C(=O)C5C6CC7C8(C)CCCC(C)(C(=O)O)C8CCC7(C=C6C(C)C)C5C4=O)cc2)C(=O)C13 (stereo not drawn) | > 55 | 3.8 | –
72 | O=c1[nH]nc(-c2ccccc2)n1/N=C/c1ccccc1O | > 200 | 115 | –
73 | Nc1ccc(N=Nc2ccc(C(=O)O)cc2)c(N)c1N=Nc1ccc(N=Nc2ccc(O)c(C(=O)O)c2)cc1 | 49 | > 100 | –
74 | O=C1CSC2=NC3=C(COC/C3=C\c3ccc(Br)cc3)C(c3ccc(Br)cc3)N12 (stereo not drawn) | – | – | inactive
75 | O=C(CCn1ccnc1)N1CCN(c2ccccc2)CC1 | > 871 | 646 | –
76 | N#Cc1c(-c2ccccc2)c(-c2ccccc2)nn(CC(=O)O)c1=O | > 759 | 47.9 | –
77 | Cc1cccc(C(C)C)c1NC(=O)C(=O)C(C(=O)c1ccccc1F)C1OC(=O)c2ccccc21 (stereo not drawn) | > 200 | 15.8 | –
78 | CCOC(=O)C(Cc1c[nH]c2cc([N+](=O)[O-])ccc12)NS(=O)(=O)c1ccc2ccccc2c1 (stereo not drawn) | > 15.5 | > 15.5 | –
79 | NC(=O)N/N=C\CC(O)(C(F)(F)Cl)C(F)(F)Cl | > 200 | > 200 | –
80 | COc1cc2c(cc1OC)C(O)[C@H](Br)C(C)(C)O2 (stereo partly drawn) | > 158 | 89.1 | –
81 | CCCCN(CCCC)CC(C(=O)Nc1ccc([N+](=O)[O-])cc1[N+](=O)[O-])/C(C)=N\NC(=O)c1ccncc1 (stereo not drawn) | > 56.2 | > 56.2 | –
